Results: PubChem BioAssay (NCI)
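Tested at 5 concentrations; 48 h exposure; 96-well plates; endpoints linearly interpolated, else capped at highest concentration. TGI is the concentration that stops growth completely.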

Key:
Test in all cases: DTP human tumour cell line panel, 48 h
NCI-H226 lung = system: NCI-H226 lung
HOP-18 NSCLC = system: HOP-18 NSCLC
NCI-H460 lung = system: NCI-H460 lung
K-562 leukemia = system: K-562 leukemia
OVCAR-3 ovarian = system: OVCAR-3 ovarian
UACC-62 melanoma = system: UACC-62 melanoma
UACC-257 melanoma = system: UACC-257 melanoma
SNB-19 CNS = system: SNB-19 CNS
HCC-2998 colon = system: HCC-2998 colon
A498 renal = system: A498 renal
SN12C renal = system: SN12C renal
M19-MEL melanoma = system: M19-MEL melanoma
OVCAR-4 ovarian = system: OVCAR-4 ovarian
RXF-631 renal = system: RXF-631 renal
OVCAR-5 ovarian = system: OVCAR-5 ovarian
IGROV1 ovarian = system: IGROV1 ovarian
MALME-3M melanoma = system: MALME-3M melanoma
SF-268 CNS = system: SF-268 CNS
OVCAR-8 ovarian = system: OVCAR-8 ovarian
KM12 colon = system: KM12 colon
HOP-62 NSCLC = system: HOP-62 NSCLC
SK-MEL-5 melanoma = system: SK-MEL-5 melanoma
SW-620 colon = system: SW-620 colon
HCT-15 colon = system: HCT-15 colon
MOLT-4 leukemia = system: MOLT-4 leukemia
EKVX NSCLC = system: EKVX NSCLC
SK-MEL-28 melanoma = system: SK-MEL-28 melanoma
HL-60(TB) leukemia = system: HL-60(TB) leukemia
SK-MEL-2 melanoma = system: SK-MEL-2 melanoma
RXF 393 renal = system: RXF 393 renal
CCRF-CEM leukemia = system: CCRF-CEM leukemia
COLO 205 colon = system: COLO 205 colon
SF-295 CNS = system: SF-295 CNS
NCI-H522 lung = system: NCI-H522 lung
SNB-75 CNS = system: SNB-75 CNS
RPMI-8226 leukemia = system: RPMI-8226 leukemia
ACHN renal = system: ACHN renal
LOX IMVI melanoma = system: LOX IMVI melanoma
TK-10 renal = system: TK-10 renal
SF-539 CNS = system: SF-539 CNS
HOP-92 NSCLC = system: HOP-92 NSCLC
XF 498 CNS = system: XF 498 CNS
DMS 273 small cell lung = system: DMS 273 small cell lung
M14 melanoma = system: M14 melanoma
HT29 colon = system: HT29 colon
786-0 renal = system: 786-0 renal
KM20L2 colon = system: KM20L2 colon
SK-OV-3 ovarian = system: SK-OV-3 ovarian
U251 CNS = system: U251 CNS
UO-31 renal = system: UO-31 renal
CAKI-1 renal = system: CAKI-1 renal
HCT-116 colon = system: HCT-116 colon
DMS 114 small cell lung = system: DMS 114 small cell lung
A549 NSCLC = system: A549 NSCLC
LXFL 529 NSCLC = system: LXFL 529 NSCLC
NCI-H23 lung = system: NCI-H23 lung
DLD-1 colon = system: DLD-1 colon

Measured: TGI

CC(C)OC(=O)c1cc(NC(=O)C(C)(C)C)c(F)cc1Cl
not listed: DLD-1 colon
> 100 µM: all other assays above

NC(N)=NNC(=O)CCn1[nH]c(=O)c(Cl)c(Cl)c1=O
not listed: A498 renal | HOP-92 NSCLC | HCT-116 colon
> 100 µM: all other assays above
